The source made the active and inactive calls. The rule behind the calls is not given here.
What follows are molecules tested on Galpha16-expressing cells, calcium fluorescence, counterscreen (assay: Ga16 cell calcium inhibition, concentration series – fluorescence, dose response, counter-screen for TAAR1 antagonist project, late-stage follow-up (AID 743237)).

SMILES	IC50
Cc1ccc(CSCC(=O)Nc2cc(S(=O)(=O)N3CCOCC3)ccc2OCC(F)(F)F)cc1	> 29.9 µM (inactive)
Cc1cccc(C(C#N)c2nc3ccccc3nc2C(F)(F)F)c1 (centres undefined)	> 29.9 µM (inactive)
CCOC(=O)C1CCCN(c2c(C(=O)c3ccccc3)cnc3ccc(OC)cc23)C1 (centres undefined)	> 29.9 µM (inactive)
COc1cccc(-c2nn(-c3ccccc3)cc2C(=O)Nc2nccs2)c1	> 29.9 µM (inactive)
Cc1coc(NC(=O)CSc2nc(-c3ccc(Cl)cc3)cc(C(F)(F)F)c2C#N)n1	> 29.9 µM (inactive)
CCCCC(=O)Nc1ccc(C(=O)Nc2ccc(S(=O)(=O)N3CCCC3)cc2)cc1	> 29.9 µM (inactive)
CC(=O)c1ccc(NC(=O)c2ccc(COc3ccccc3[N+](=O)[O-])o2)cc1	> 29.9 µM (inactive)
O=C(NCCn1cc(SCc2ccccc2F)c2ccccc21)c1c(F)cccc1F	> 29.9 µM (inactive)
COc1cc(NC(=O)c2cc3ccccc3o2)c(OC)cc1Cl	> 29.9 µM (inactive)

From PubChem BioAssay AID743237 (The Scripps Research Institute Molecular Screening Center, 2013)
